{
  "source": "patent US12514843B2",
  "about": "“Biofilm disruption” (QBIOTICS PTY LTD, priority 2019, dated 2026)",
  "key": {"E. coli IR57 biofilm": {"tested_on": "E. coli IR57 biofilm", "experiment": "Multiple particle tracking (MPT) of 200 nm FluoSpheres in established biofilm", "format": "cell-based, Escherichia coli", "experimental": "The effect of three epoxytiglienones (Compounds 1, 4 and 6) on the assembly and permeability of established biofilms of E. coli was assessed using multiple particle tracking (MPT). MPT is a recently described technique, allowing simultaneous tracking of micron-size particles through biofilms using microscopy, from which the diffusion-based parameters of embedded particles within the extracellular polymeric matrix (EPS) of the biofilm can be determined (Cao et al. 2016). MPT measurements also allows for calculation of micro-rheological properties of the biofilm structure following treatment with test compounds.\nE. coli biofilms were established and epoxytiglienone and control treatments applied as described in Example 2 above. Twenty-four hours after application of the treatments, the biofilms were stained with SYTO9® and 0.0025% of negatively-charged, carboxylate-modified FluoSpheres® (200 nm) added onto the biofilms and incubated for a further 2 hours. FluoSphere® particle movements within the biofilms were then captured on video using epifluorescence microscopy with a high frame-rate camera (33 ms). Particle trajectories were tracked using ImageJ softwaren (Mosaic) before calculation of three parameters of the 200 nm FluoSphere® particles: (i) ensemble diffusion coefficient (Deff), (ii) ensemble mean squared displacement (MSD) and (iii) creep compliance (a measure of resistance to mechanical deformation derived from the MSD vs lag time). Each treatment was replicated three times."}, "[1]": {"tested_on": "A. baumannii 7789 biofilm", "experiment": "Disruption of established in vitro biofilm, CLSM with COMSTAT image analysis", "format": "cell-based, Acinetobacter baumannii", "details": "256 μg/mL", "experimental": "(§1) Biofilms of E. coli IR57 were grown on 96-well glass-bottomed plates in Mueller-Hinton (MH) broth for 24 h, before 50% of the supernatant was replaced with fresh MH broth with or without the epoxytiglienone compound added to a final concentration of 256 μg/mL (vehicle is ethanol). An ethanol equivalent blank was used as a further control treatment. The plates were then incubated for a further 24 h at 37° C.\n(§2) Confocal laser scanning microscopy (CLSM) was then used to image the biofilms, following staining with Live/Dead® Baclight stain with phosphate buffered saline (PBS) added to each well before imaging with z-stack CLSM. The resultant images were analysed by COMSTAT software to produce measurements of (i) biofilm biomass volume or bio-volume (μm^3/μm^2) and (ii) DEAD/LIVE bacterial ratio.\n(§3) The effects of the epoxytiglienones (Compounds 1, 4, 6 and the comparator compound CC-1) on disruption of established in vitro biofilms were further investigated with two other species of Gram-negative bacteria (Pseudomonas aeruginosa PA01 and Acinetobacter baumannii 7789) using methods described in Example 2 above. Cell permeabilisation following Compound 1, 4 and 6 treatment was also determined using SYTOX™ Green Nucleic Acid Stain with untreated control and positive control of 70% isopropanol."}, "[2]": {"tested_on": "P. aeruginosa PAO1 biofilm", "experiment": "Disruption of established in vitro biofilm, CLSM with COMSTAT image analysis", "format": "cell-based, Pseudomonas aeruginosa", "details": "256 μg/mL", "experimental": "as §1, §2, §3"}, "[3]": {"tested_on": "chronic biofilm infection", "experiment": "Diabetic murine model of chronic biofilm infection (excisional wound)", "format": "in vivo, db/db diabetic mice", "details": "0.3 mg/mL in hydrogel, topical at 24 h, 8 and 15 days; assessed day 21 to 28 post wounding; 7 mice", "source_text": "The effects of administration of Compound 4 on biofilm infection in vivo was studied in a diabetic murine model of chronic biofilm infection (Zhao et al. 2010). In this study we used methods described by Dhall et al. (2014) in which bacterial biofilm infections develop spontaneously following wound creation.\nBriefly, db/db diabetic mice (>6 months old) were housed for 4-5 weeks in non-sterile conditions prior to the creation of wound on the back of each mouse with a 6 mm diameter excisional punch biopsy. Mice were then administered a catalase inhibitor intra-peritoneally (1 g/kg aminotriazole) and a glutathione peroxidase (GPx) inhibitor topically around the edge of the wound site (1 g/kg mercaptosuccinic acid) prior to dressing with Tegaderm. After 24 h, biofilms were evident at the wound site on all mice. The mice where divided into two groups (7 mice per group) and treated with either Compound 4 (0.3 mg/mL in a hydrogel vehicle) or a Control treatment (hydrogel vehicle only). The Tegaderm dressing was the then replaced. Two further administrations of Compound 4 or the Control (vehicle only) were performed at 8 and 15 days. No antibiotics or other antibacterial treatments were applied during the study.\nThe presence of biofilm and the surface area of the wound were assessed over the course of the study. […]"}, "[4]": {"tested_on": "isolated human neutrophils", "experiment": "LL-37 release from neutrophils, ELISA", "format": "cell-based", "details": "3 hours after treatment, 62.5, 125, 250 and 500 μM", "experimental": "For these assays, neutrophils were isolated from fresh blood of a healthy human donor by lysis of a red blood cell pellet that had been obtained by Ficoll-Paque sedimentation. The neutrophils (˜4×10^6 cells/mL) were incubated with 10 μg/mL dihydroethidium (DHE) (Sigma-Aldrich) in complete culture medium at 37° C. for 15 min alongside an aliquot of unstained cells to be tested as unstained control.\nTo examine antimicrobial peptide release by neutrophils in response to treatment with Compound 4, isolated neutrophils were incubated with either vehicle or Compound 4 at the four concentrations (62.5, 125, 250 and 500 μM). At 3 h, cell culture supernatants were removed and tested for LL-37 content using a LL-37-directed ELISA kit (Hycult Biotech). ELISA readings were normalised to vehicle only controls to determine fold increases in LL-37 release."}, "[5]": {"details": "vs untreated and ethanol blank controls"}},
  "data": [
    {"smiles": "CCCCCC(=O)OC1C(C)C2(O)C(C3OC3(CO)C(O)C3(O)C(=O)C(C)=CC32)C2C(C)(C)C12OC(=O)CCCCC", "note": "(stereo not shown) [Compound 4, 12,13-dihexanoyl-6,7-epoxy-4,5,9,12,13,20-hexahydroxy-1-tiglien-3-one]", "values": [
      {"measurement": "Diffusion coefficient (Deff) ± standard deviation", "setting": "E. coli IR57 biofilm; 200 nm negatively-charged carboxylate-modified FluoSpheres in E. coli IR57 biofilms, 256 μg/mL, 24 h treatment", "result": "0.8449 ± 0.1250", "unit": "cm^2 · s^−1 × 10^−9"},
      {"measurement": "mean squared displacement (MSD) of FluoSphere particles", "setting": "E. coli IR57 biofilm; E. coli IR57 biofilm, 200 nm FluoSpheres, vs untreated and ethanol blank controls", "result": "substantially higher"},
      {"measurement": "biofilm creep compliance", "setting": "E. coli IR57 biofilm; E. coli IR57 biofilm, derived from MSD vs lag time, vs untreated and ethanol blank controls", "result": "increased"},
      {"measurement": "DEAD/LIVE bacterial ratio", "setting": "[1]; [5]", "result": "no significant differences"},
      {"measurement": "biofilm bio-volume (COMSTAT)", "setting": "[1]; vs untreated and ethanol blank controls (p<0.05)", "result": "significant reductions"},
      {"measurement": "biofilm distribution (CLSM)", "setting": "[2]; compared to other treatments", "result": "significant effect"},
      {"measurement": "biofilm bio-volume (COMSTAT)", "setting": "[2]; compared to other treatments (P<0.05)", "result": "significant effect"},
      {"measurement": "DEAD/LIVE bacterial ratio", "setting": "[2]; [5]", "result": "no significant differences"},
      {"measurement": "mice with complete wound healing (complete re-epithelialisation, resolution of inflammation, absence of bacteria within the dermis)", "setting": "[3]", "result": "6 of the 7"},
      {"measurement": "Release of LL-37 from neutrophils", "setting": "[4]", "result": "increased in a concentration dependent manner"}
    ]}
  ]
}
